Experiment [1] deals with ClpC (Mycolicibacterium smegmatis, UniProt A0R574). As to the kind of experiment: biochemical. The experiment is classed as binding, Mycobacterium smegmatis.
Source text: (§1) All the binding data were double-referenced by blank cycle and reference flow cell subtraction. The resulting data fit a 1:1 Langmuir binding model using Biacore Insight Evaluation Software 4.0 (GE Healthcare).
The target of experiment [2] is ClpC (S437P) (Mycolicibacterium smegmatis, UniProt A0R574, S437P). Briefly: biochemical. The experiment is classed as binding, Mycobacterium smegmatis.
Source text: as §1
The subject of experiment [3] is M. smegmatis.
The test system of experiment [4] is M. smegmatis. This is another data set of the same source.
In experiment [5] the test system is ClpCP1P2. The note with it: 10 μM COG1410; 1 μM ClpC, 2 μM ClpP1 and ClpP2, 100 μM ATP, 1 μM FITC-casein, 1 h, 37 °C, pH 7.5.
Experiment [6] concerns pandrug-resistant Acinetobacter baumannii. Set-up: method as in PMID 36081797. The note with it: cited from earlier work.
Setting [7] is: […], Tables 2 and 3 print no unit (text b20 uses μg/mL), micro-dilution, 37 °C, 48 h.
Setting [8] is: […], Tables 2 and 3 print no unit, micro-dilution, 37 °C, 48 h.
[9] abbreviates: strain clpC (KD), Tables 2 and 3 print no unit, micro-dilution, 37 °C, 48 h.

Values after ≈ are worked out from the molar mass of the structure shown. Like-named read-outs stand apart in the source and are kept apart here. Square brackets hold non-standard residues; d marks the D form. Peptide text beside a SMILES is read from it. Aib = CC(C)(N)C(=O)O

Sequence of ClpC (S437P) (A0R574 whole entry S437P, looked up): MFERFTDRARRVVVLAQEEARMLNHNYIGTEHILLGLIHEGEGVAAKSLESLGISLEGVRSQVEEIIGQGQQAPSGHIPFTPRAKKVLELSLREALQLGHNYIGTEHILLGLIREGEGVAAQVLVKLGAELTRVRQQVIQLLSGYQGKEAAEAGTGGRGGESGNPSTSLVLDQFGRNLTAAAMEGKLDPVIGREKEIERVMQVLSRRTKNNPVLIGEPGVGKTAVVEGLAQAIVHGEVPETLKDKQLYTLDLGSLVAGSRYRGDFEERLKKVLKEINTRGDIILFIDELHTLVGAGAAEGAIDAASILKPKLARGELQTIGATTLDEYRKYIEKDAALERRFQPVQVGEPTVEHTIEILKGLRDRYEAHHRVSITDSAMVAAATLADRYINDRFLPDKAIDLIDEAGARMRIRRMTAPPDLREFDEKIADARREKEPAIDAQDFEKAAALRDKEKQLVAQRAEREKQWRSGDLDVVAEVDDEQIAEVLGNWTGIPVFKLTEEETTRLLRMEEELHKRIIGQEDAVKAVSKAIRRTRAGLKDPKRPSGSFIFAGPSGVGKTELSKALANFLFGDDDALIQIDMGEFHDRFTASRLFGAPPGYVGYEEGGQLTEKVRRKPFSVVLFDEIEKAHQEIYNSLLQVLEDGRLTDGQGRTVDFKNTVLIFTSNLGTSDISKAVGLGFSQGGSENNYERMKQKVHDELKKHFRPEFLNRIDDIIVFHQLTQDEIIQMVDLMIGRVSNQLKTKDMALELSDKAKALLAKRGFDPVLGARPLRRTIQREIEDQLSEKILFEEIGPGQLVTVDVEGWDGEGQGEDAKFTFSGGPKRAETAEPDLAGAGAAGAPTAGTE
Sequence of ClpC (A0R574 whole entry): as the sequence (A0R574 whole entry S437P, looked up) above, with P437S counted along it

In general, Kd refers to the equilibrium constant for the complex coming apart. Usually MBC stands for the smallest concentration meeting the test's criterion for killing. Higher therefore signals weaker bactericidal potency. On to `CC(=O)N[C@@H](C)C(=O)N[C@@H](CO)C(=O)NC(C)(C)C(=O)N[C@@H](CC(C)C)C(=O)N[C@@H](CCCNC(=N)N)C(=O)N[C@@H](CCCCN)C(=O)N[C@@H](CC(C)C)C(=O)NC(C)(C)C(=O)N[C@@H](CCCCN)C(=O)N[C@@H](CCCNC(=N)N)C(=O)N[C@@H](CC(C)C)C(=O)N[C@@H](CC(C)C)C(N)=O` [COG1410] (Ac-AS[Aib]LRKL[Aib]KRLL-NH2), for which the values for the Kd in experiment [1] and in experiment [2] were 2030 nM and 1310 nM, respectively. For the same compound, the kon in experiment [1] (pH 7.4, read-out: association constant (ka)) was found to be 5780 M⁻¹ s⁻¹; in experiment [2] (pH 7.4, read-out: ka) it was 9900 M⁻¹ s⁻¹. The MIC is on record as 256 µg/mL (≈ 182 µM) in experiment [3] (strain 35g/pSMT3-ClpC (S437P), micro-dilution, 37 °C, 48 h, triplicate); 16 µg/mL (≈ 11.4 µM) in experiment [3] (strain WT/pSMT3-ClpC (overexpression), micro-dilution, 37 °C, 48 h, triplicate); above 256 µg/mL in experiment [3] (strain clpC (KD), knockdown, micro-dilution, 37 °C, 48 h, triplicate); above 256 µg/mL in experiment [3] (strain clpC (KD)/pSMT3-ClpC (S437P), micro-dilution, 37 °C, 48 h, triplicate). The MBC in experiment [4] (strain 35g/pSMT3-ClpC (S437P)) is above 256 µg/mL; in experiment [4] (strain clpC (KD), knockdown), above 256 µg/mL; in experiment [4] (strain clpC (KD)/pSMT3-ClpC (S437P)) it was above 256 µg/mL.
As for `NCC[C@H](O)C(=O)N[C@@H]1C[C@H](N)[C@@H](O[C@H]2O[C@H](CN)[C@@H](O)[C@H](O)[C@H]2O)[C@H](O)[C@H]1O[C@H]1O[C@H](CO)[C@@H](O)[C@H](N)[C@H]1O` [amikacin], the figures for the MIC in experiment [3] (setting [7]), in experiment [3] (setting [8]) and in experiment [3] (setting [9]) were 0.5, 0.5 µg/mL (≈ 0.854 µM) and 0.5 µg/mL (≈ 0.854 µM), respectively.
In the case of `CC[C@H]1OC(=O)[C@H](C)[C@@H](O[C@H]2C[C@@](C)(OC)[C@@H](O)[C@H](C)O2)[C@H](C)[C@@H](O[C@@H]2O[C@H](C)C[C@H](N(C)C)[C@H]2O)[C@](C)(O)C[C@@H](C)CN(C)[C@H](C)[C@@H](O)[C@]1(C)O` [azithromycin], the MIC came out at 2 in experiment [3] (setting [7]), 2 µg/mL (≈ 2.67 µM) in experiment [3] (setting [8]) and 2 µg/mL (≈ 2.67 µM) in experiment [3] (setting [9]).
Regarding `CO[C@@]1(NC(=O)Cc2cccs2)C(=O)N2C(C(=O)O)=C(COC(N)=O)CS[C@@H]21` [cefoxitin], the MIC in experiment [3] (setting [7]) was determined as 16; in experiment [3] (setting [8]), 16 µg/mL (≈ 37.4 µM); in experiment [3] (setting [9]), 16 µg/mL (≈ 37.4 µM).
For the compound `CC(=O)NC[C@H]1CN(c2ccc(N3CCOCC3)c(F)c2)C(=O)O1` [linezolid], the MIC in experiment [3] (setting [7]) was determined as 1; in experiment [3] (setting [8]) it was 1 µg/mL (≈ 2.96 µM); in experiment [3] (setting [9]), 1 µg/mL (≈ 2.96 µM).
As for IRMRIRVLL [antiTB_1080], the MIC in experiment [3] (setting [7]) is 32; in experiment [3] (setting [8]), 128 µg/mL; in experiment [3] (setting [9]), above 256 µg/mL.
Consider LRKLRKRLVRLASHLRKLRKRLL [ApoE23], for which the MIC in experiment [3] is 128 µg/mL; in experiment [3] (setting [7]) it was 128; in experiment [3] (setting [8]) it was above 128 µg/mL; in experiment [3] (setting [9]), above 128 µg/mL. Besides, in experiment [5], the “increase in proteolytic activity, ClpCP1P2 system” value is “substantial increase in proteolytic activity”.
With LRVRLASHLRKLRKRLL [COG133], the anti-mycobacterial activity result in experiment [3] (M. smegmatis, result in words) is listed as “did not demonstrate anti-mycobacterial activity”. For the same compound, the results for the MIC in experiment [3] (setting [7]), in experiment [3] (setting [8]) and in experiment [3] (setting [9]) were above 256, above 256 µg/mL and above 256 µg/mL, respectively. In addition, the “increase in proteolytic activity, ClpCP1P2 system” value in experiment [5] was “no influence on proteolytic activity”.
With WKWLKKWIK [antiTB_1026], the MIC was 32 in experiment [3] (setting [7]), 256 µg/mL in experiment [3] (setting [8]) and above 256 µg/mL in experiment [3] (setting [9]).
Turning to polymyxin B, in experiment [6], the “fold increase of MIC after 55 passages in the presence of sub-MIC agent” value is 64 fold.

Source of the values: publication PMC10967448 (Antibiotics, 2024).
